The record followed here is ChEMBL document CHEMBL1240334, “Molecular basis of cyclin-CDK-CKI regulation by reversible binding of an inositol pyrophosphate” (Nat Chem Biol, 2008).

Molecules are shown by their SMILES. Activity calls are given as the source filed them. The calls are words filed in the database; no cut-off is given here.

Test [1] deals with T1, Pho80/Pho85 (Saccharomyces cerevisiae S288c) (UniProt P17157+P20052). As to the kind of experiment: Binding affinity of […]-labeled Pho81-MD to Saccharomyces cerevisiae Pho80-Pho85 by fluorescence binding assay relative to untreated control. In kind it is protein-complex assay.
Test [2] concerns the target T1, Pho80/Pho85 (Saccharomyces cerevisiae S288c). As to the kind of experiment: Inhibition of Saccharomyces cerevisiae Pho80-Pho85 at 50 uM in presence of > 10 uM Pho81-MD. Type of test: protein-complex assay.
The target in test [3] is T2, Pho80/Pho85/Pho81 complex (Saccharomyces cerevisiae S288c) (UniProt P17157+P17442+P20052). The experiment in a line: Displacement of myo-inositol hexakisphosphate from Pho80-Pho85-Pho81-MD complex in Saccharomyces cerevisiae at 0.2 uM 30 mins by electrophoretic mobility shift assay. In kind it is protein-complex assay.
The target of test [4] is T2, Pho80/Pho85/Pho81 complex (Saccharomyces cerevisiae S288c). As to the kind of experiment: Binding affinity to Saccharomyces cerevisiae Pho80-Pho85-Pho81-MD complex at 0.2 uM after 30 mins by electrophoretic mobility shift assay in presence of 6mM CaCl2. In kind it is protein-complex assay. The settings on record: tested as the 32P-labelled form. On the technique in general: Mobility shift assays separate free from complexed probe on a gel.

Test [5] deals with T3, Phosphate system positive regulatory protein PHO81 (Saccharomyces cerevisiae S288c, UniProt P17442).
T3 sequence (P17442 whole entry): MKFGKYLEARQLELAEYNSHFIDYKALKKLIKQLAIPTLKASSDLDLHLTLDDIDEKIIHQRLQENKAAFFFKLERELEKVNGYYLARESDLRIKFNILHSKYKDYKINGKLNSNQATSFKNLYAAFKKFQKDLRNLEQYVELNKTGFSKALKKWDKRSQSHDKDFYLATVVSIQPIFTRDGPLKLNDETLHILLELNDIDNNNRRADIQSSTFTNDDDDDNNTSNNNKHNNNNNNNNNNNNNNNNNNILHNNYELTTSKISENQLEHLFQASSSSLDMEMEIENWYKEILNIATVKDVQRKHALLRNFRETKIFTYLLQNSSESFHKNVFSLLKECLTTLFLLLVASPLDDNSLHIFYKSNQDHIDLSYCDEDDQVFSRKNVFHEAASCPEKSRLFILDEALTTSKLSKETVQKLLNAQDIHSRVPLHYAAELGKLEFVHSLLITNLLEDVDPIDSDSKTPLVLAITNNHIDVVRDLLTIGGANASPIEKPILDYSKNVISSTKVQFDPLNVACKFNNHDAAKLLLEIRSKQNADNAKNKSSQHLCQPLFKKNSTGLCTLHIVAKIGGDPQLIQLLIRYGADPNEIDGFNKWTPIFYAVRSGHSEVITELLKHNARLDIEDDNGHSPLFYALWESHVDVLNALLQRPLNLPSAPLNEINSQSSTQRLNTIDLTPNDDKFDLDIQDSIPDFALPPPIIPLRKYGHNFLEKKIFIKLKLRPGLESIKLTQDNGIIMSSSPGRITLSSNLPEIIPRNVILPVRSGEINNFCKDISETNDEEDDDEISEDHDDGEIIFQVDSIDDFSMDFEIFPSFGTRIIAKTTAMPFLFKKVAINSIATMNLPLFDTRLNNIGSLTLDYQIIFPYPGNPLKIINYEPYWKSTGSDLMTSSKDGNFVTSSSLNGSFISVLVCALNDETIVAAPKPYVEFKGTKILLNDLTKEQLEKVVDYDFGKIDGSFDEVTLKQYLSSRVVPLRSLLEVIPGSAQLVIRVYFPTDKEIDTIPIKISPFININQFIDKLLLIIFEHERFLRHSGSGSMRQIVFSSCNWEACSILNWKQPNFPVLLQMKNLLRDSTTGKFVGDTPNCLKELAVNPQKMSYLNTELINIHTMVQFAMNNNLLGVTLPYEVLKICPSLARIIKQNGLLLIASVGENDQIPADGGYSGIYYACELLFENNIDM
The experiment in a line: Inhibition of Saccharomyces cerevisiae Pho81-MD-dependent Pho80-Pho85 activity after 30 mins.

Test [6] deals with T3, Phosphate system positive regulatory protein PHO81. The experiment in a line: Inhibition of Saccharomyces cerevisiae Pho81-MD-MD dependent Pho80-Pho85 activity after 60 mins.
Test [7] has the same target. The experiment in a line: Inhibition of Saccharomyces cerevisiae Pho81-MD-dependent Pho80-Pho85 activity after 10 mins.
The target of test [8] is T2, Pho80/Pho85/Pho81 complex (Saccharomyces cerevisiae S288c). As to the kind of experiment: Displacement of [32P]-labeled 4-inositol heptakisphosphate from Pho80-Pho85-Pho81-MD complex in Saccharomyces cerevisiae at 400 uM 30 mins at 4 degC by electrophoretic mobility shift assay. As to conditions: tested as the 32P-labelled form. Type of test: protein-complex assay.
For test [9] the target is unchanged. The experiment in a line: Binding affinity to Saccharomyces cerevisiae Pho80-Pho85-Pho81-MD complex at 0.2 uM after 30 mins by electrophoretic mobility shift assay in presence of 6 mM ZnSO4. In kind it is protein-complex assay. As to conditions: tested as the 32P-labelled form.
Test [10] shares this target. As to the kind of experiment: Displacement of [32P]-labeled 6-inositol heptakisphosphate from Pho80-Pho85-Pho81-MD complex in Saccharomyces cerevisiae at 400 uM at 30 degC by electrophoretic mobility shift assay. The settings on record: tested as the 32P-labelled form. In kind it is protein-complex assay.
The target is the same in test [11]. The experiment in a line: Displacement of [32P]-labeled 4-inositol heptakisphosphate from Pho80-Pho85-Pho81-MD complex in Saccharomyces cerevisiae at 400 uM 30 mins at 30 degC by electrophoretic mobility shift assay. Type of test: protein-complex assay. The settings on record: tested as the 32P-labelled form.
Test [12] shares this target. The experiment in a line: Displacement of [32P]-labeled 6-inositol heptakisphosphate from Pho80-Pho85-Pho81-MD complex in Saccharomyces cerevisiae at 400 uM at 4 degC by electrophoretic mobility shift assay. As to conditions: tested as the 32P-labelled form. In kind it is protein-complex assay.
For test [13] the target is unchanged. The experiment in a line: Inhibition of Saccharomyces cerevisiae Pho80-Pho85-Pho81-MD catalyzed phosphorylation of wild type Pho4 distal-site assessed as increase in substrate concentration. In kind it is protein-complex assay.
Test [14] concerns the target T1, Pho80/Pho85 (Saccharomyces cerevisiae S288c). As to the kind of experiment: Inhibition of Saccharomyces cerevisiae Pho80-Pho85 at 100 uM in presence of > 10 uM Pho81-MD. In kind it is protein-complex assay.
Test [15] has as its target T2, Pho80/Pho85/Pho81 complex (Saccharomyces cerevisiae S288c). As to the kind of experiment: Binding affinity to Saccharomyces cerevisiae Pho80-Pho85-Pho81-MD complex at 0.2 uM after 30 mins by electrophoretic mobility shift assay in presence of 6mM MgCl2. Type of test: protein-complex assay. As to conditions: tested as the 32P-labelled form.
Test [16] has as its target T4, Pho80/Pho85/Pho81 complex (Saccharomyces cerevisiae S288c, UniProt P17157+P17442+P20052). As to the kind of experiment: Inhibition of Saccharomyces cerevisiae Pho80-Pho85-Pho81-MD catalyzed phosphorylation of Pho4-site 6 peptide. In kind it is protein-complex assay.
Test [17] concerns the target T2, Pho80/Pho85/Pho81 complex (Saccharomyces cerevisiae S288c). As to the kind of experiment: Binding affinity to Saccharomyces cerevisiae Pho80-Pho85-Pho81-MD complex at 400 uM after 30 mins at 30 degC by electrophoretic mobility shift assay. Type of test: protein-complex assay.
Test [18] shares this target. As to the kind of experiment: Inhibition of Saccharomyces cerevisiae Pho80-Pho85-Pho81-MD catalyzed phosphorylation of Pho4 S176N distal-site mutant assessed as increase in substrate concentration. Type of test: protein-complex assay.
The target is the same in test [19]. As to the kind of experiment: Inhibition of Saccharomyces cerevisiae Pho80-Pho85-Pho81-MD catalyzed phosphorylation of Pho4 F29I distal-site mutant assessed as increase in substrate concentration. In kind it is protein-complex assay.
For test [20] the target is unchanged. The experiment in a line: Binding affinity to Saccharomyces cerevisiae Pho80-Pho85-Pho81-MD complex at 0.2 uM after 30 mins by electrophoretic mobility shift assay in presence of 6mM MnCl2. In kind it is protein-complex assay. The settings on record: tested as the 32P-labelled form.
Test [21] deals with T1, Pho80/Pho85 (Saccharomyces cerevisiae S288c). The experiment in a line: Binding affinity of Pho81-MD S2-segment to Saccharomyces cerevisiae Pho80-Pho85. Type of test: protein-complex assay.
For test [22], the target named is T3, Phosphate system positive regulatory protein PHO81. As to the kind of experiment: Inhibition of Saccharomyces cerevisiae Pho81-MD-MD dependent Pho80-Pho85 activity after 120 mins.
Test [23] addresses T2, Pho80/Pho85/Pho81 complex (Saccharomyces cerevisiae S288c). As to the kind of experiment: Inhibition of Saccharomyces cerevisiae Pho80-Pho85-Pho81-MD catalyzed phosphorylation of Pho4 D175V distal-site mutant. In kind it is protein-complex assay.
For test [24], the target named is T4, Pho80/Pho85/Pho81 complex. The experiment in a line: Competitive inhibition of Saccharomyces cerevisiae Pho80-Pho85-Pho81-MD catalyzed phosphorylation of Pho4 assessed as increase in substrate concentration by line-weaverberk plot assay. In kind it is protein-complex assay.
Test [25] addresses T2, Pho80/Pho85/Pho81 complex (Saccharomyces cerevisiae S288c). The experiment in a line: Binding affinity to Saccharomyces cerevisiae Pho80-Pho85-Pho81-MD complex at 0.2 uM after 30 mins at by electrophoretic mobility shift assay. As to conditions: tested as the 32P-labelled form.
For test [26] the target is unchanged. The experiment in a line: Binding affinity to Saccharomyces cerevisiae Pho80-Pho85-Pho81-MD complex at 400 uM after 30 mins at 4 degC by electrophoretic mobility shift assay. Type of test: protein-complex assay.
Test [27] deals with T1, Pho80/Pho85 (Saccharomyces cerevisiae S288c). The experiment in a line: Binding affinity of Pho81-MD S1-segment to Saccharomyces cerevisiae Pho80-Pho85. In kind it is protein-complex assay.
In test [28] the target is T2, Pho80/Pho85/Pho81 complex (Saccharomyces cerevisiae S288c). The experiment in a line: Displacement of 5-Inositol heptakisphosphate from Pho80-Pho85-Pho81-MD complex in Saccharomyces cerevisiae at 0.2 uM 30 mins by electrophoretic mobility shift assay. In kind it is protein-complex assay.
For test [29] the target is unchanged. As to the kind of experiment: Inhibition of Saccharomyces cerevisiae Pho80-Pho85-Pho81-MD catalyzed phosphorylation of Pho4 P174L distal-site mutant assessed as increase in substrate concentration. In kind it is protein-complex assay.
Test [30] has the same target. The experiment in a line: Inhibition of Saccharomyces cerevisiae Pho80-Pho85-Pho81-MD catalyzed phosphorylation of Pho4 I22T distal-site mutant assessed as increase in substrate concentration. Type of test: protein-complex assay.
Test [31] concerns the target T4, Pho80/Pho85/Pho81 complex. The experiment in a line: Binding affinity to Saccharomyces cerevisiae Pho80-Pho85-Pho81-MD complex from 2uM to 80 uM after 30 mins by electrophoretic mobility shift assay in presence of 6 mM MgCl2. Type of test: protein-complex assay. As to conditions: read-out: Kd(app).

T4 sequence (P17157 whole entry, one chain of several): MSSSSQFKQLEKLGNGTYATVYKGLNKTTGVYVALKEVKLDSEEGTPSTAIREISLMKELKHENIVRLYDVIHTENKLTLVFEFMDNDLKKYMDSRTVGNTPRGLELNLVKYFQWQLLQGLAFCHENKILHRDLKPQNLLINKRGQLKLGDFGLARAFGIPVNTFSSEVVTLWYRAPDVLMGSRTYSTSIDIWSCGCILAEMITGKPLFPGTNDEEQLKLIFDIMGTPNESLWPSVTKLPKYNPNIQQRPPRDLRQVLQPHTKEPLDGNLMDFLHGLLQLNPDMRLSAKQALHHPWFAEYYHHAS
T4 sequence (P20052 whole entry, one chain of several): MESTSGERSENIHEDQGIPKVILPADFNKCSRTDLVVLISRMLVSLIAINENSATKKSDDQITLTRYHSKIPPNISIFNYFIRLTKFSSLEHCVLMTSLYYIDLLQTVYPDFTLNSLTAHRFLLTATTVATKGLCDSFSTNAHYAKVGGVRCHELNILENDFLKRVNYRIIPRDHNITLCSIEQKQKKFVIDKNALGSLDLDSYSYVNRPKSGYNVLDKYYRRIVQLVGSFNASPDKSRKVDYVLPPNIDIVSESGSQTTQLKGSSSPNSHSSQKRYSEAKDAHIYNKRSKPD

For `O=P(O)(O)O[C@H]1[C@@H](OP(=O)(O)O)[C@H](OP(=O)(O)O)[C@@H](OP(=O)(O)OP(=O)(O)O)[C@H](OP(=O)(O)O)[C@H]1OP(=O)(O)O`, the outcome in [1] was inactive.
A word on the IC50: it is the point on the concentration scale where inhibition reaches its midpoint. Low readings indicate greater potency in that assay, high ones weaker potency in that assay. The Ki is the dissociation constant of the complex between target and ligand, obtained from inhibition or displacement. Regarding `O=P(O)(O)O[C@H]1[C@@H](OP(=O)(O)O)[C@@H](OP(=O)(O)O)[C@H](OP(=O)(O)OP(=O)(O)O)[C@@H](OP(=O)(O)O)[C@@H]1OP(=O)(O)O`, the outcome in [2], in test [4], in test [8], in test [12], in [14] and in test [17] was inactive. The result in [21], in test [25] and in test [26] was inactive. Moreover, the outcome in test [3], in test [9], in test [10], in [11], in [15] and in test [20] was Active. Further, the result in test [27] and in test [28] was Active. Also, the IC50 came to 14 µM in test [5]; 31 µM in test [6]; 23 µM in test [7]; 25 µM in test [16]; 22 µM in [22]. The inhibition result in test [13], in [18], in test [19], in [23], in test [29] and in test [30] was “Active” throughout. Also, in test [24], the Ki is 19 µM. Besides, the Kd in test [31] was 20.3 µM. The fold change (FC) in test [1] was 5.
